Entries after “also recorded” stand apart in the source; their conditions may differ.
Tests used:
[1] = test system: arteries isolated from control Wistar-Kyoto (WKY) rats; experiment: NO release from arteries isolated from control Wistar-Kyoto (WKY) rats; set-up: species or system rat; conditions: for amount of NO released: WKY rat arteries, concentration of 10 μM (maximum NO release)
Description: In one aspect of the present invention, a composition comprising nebivolol is administered to a person of Hispanic descent, particularly a Mexican American, wherein nebivolol is administered in a mixture containing a greater proportion (enantiomeric excess) of the l-steroisomer of nebivolol. In another embodiment, all or substantially all of the mixture comprises the l-stereoisomer of nebivolol. NO release levels from arteries isolated from control Wistar-Kyoto (WKY) rats following treatment with nebivolol racemate, l-nebivolol or d-nebivolol vary. […] At this concentration, the amount of NO released was 340±30 nM, 284±24 nM, and 180±21 nM for l-nebivolol, nebivolol racemate and d-nebivolol, respectively. These findings confirm that nebivolol can stimulate NO release in the intact artery in a stereoselective manner. See also, Xhonneux R, Wouters L, Reneman R S, et al. The l-enantiomer of nebivolol potentiates the blood pressure lowering effect of the d-enantiomer. Eur. J. Pharmacol. 1990; 181:261-265.

[2] = test system: human umbilical vein endothelial cells; experiment: CaI-stimulated endothelial NO release in HUVECs from MA and NHW donors after 24 h pre-treatment (nanosensor array); assay type: cell-based; conditions: for enhancement of NO release: pretreatment 24 hr, 1.0 μM, CaI 1.0 μM stimulus
Description: (§1) Endothelial function in cells from normotensive, age-matched Mexican American (MA) and Non-Hispanic White (NHW) donors, as well as the effects of treatment with nebivolol was also determined. Endothelial NO and peroxynitrite (ONOO^−) release was measured simultaneously in human umbilical vein endothelial cells from age-matched MA and NHW donors using a nanosensor array. The effects of nebivolol on NO and ONOO^− production was evaluated following pre-treatment (24 h) using calcium ionophore (CaI) as a receptor-independent stimulus. Levels of eNOS were measured by Western blot analysis. Drug-membrane interactions were determined by small angle x-ray diffraction analysis.

[3] = test system: human umbilical vein endothelial cells (HUVECs); experiment: Endothelial-dependent NO release from HUVECs of non-Hispanic white and Mexican American donors, measured with electrochemical nanosensors; assay type: cell-based; conditions: for increase in NO release (NO bioavailability): 24 h pretreatment with nebivolol at 1.0 μM (FIG. 4)
Description: The effects of nebivolol and atenolol on endothelial-dependent NO release were tested in human umbilical vein endothelial cells (HUVECs). Human umbilical vein endothelial cells were isolated into primary cultures from non-Hispanic white and Mexican American female donors by Clonetics (San Diego, Calif.) and purchased as proliferating cells. All cell culture donors were healthy, with no pregnancy or prenatal complications. None of the donors took any drugs regularly and all were nonsmokers and consumed regular caloric/content diet. The identification of race was defined by self-report. The cultured cells were incubated in 95% air/5% CO2 at 37° C. and passage by an enzymatic (trypsin) procedure. […] Before the experiments, the cells (from second or third passage) were rinsed twice with Tyrode-HEPES buffer with 1.8 mmol/L CaCl2. Drugs were obtained from Mylan Laboratories (Morgantown, W. Va.). NO measurement was carried out with electrochemical nanosensors The design was based on previously developed and well-characterized chemically modified carbon-fiber technology ([…], Nature 358, 676-678, 1992; […]. Anal. Chem. 69, 454-462, 1997). Each of the nanosensors was made by depositing a sensing material on the tip of a carbon fiber (length 4-5 μm, diameter 0.2-0.5 μm). The fibers were sealed with nonconductive epoxy and electrically connected to copper wires with conductive silver epoxy. […] The NO nanosensors (diameter 1-2 μm) with a platinum wire (0.1 mm) counter electrode and saturated calomel reference electrode (SCE) were applied. Differential pulse voltammetry (DPV) and amperometry were performed with a computer-based Gamry VFP600 multichannel potentiostat. DPV was used to measure the basal NO concentrations, and amperometry was used to measure changes in NO concentrations from its basal level with time. The DPV current at the peak potential characteristic for NO oxidation (0.65 V) […] was directly proportional to the local concentrations of these compounds in the immediate vicinity of the sensor. Linear calibration curves (current vs. concentration) were constructed for each sensor from 10 nmol/L to 3 μmol/L before and after measurements with aliquots of NO standard solutions, respectively. The detection limit of the sensors was 10^-9 mol/L. The quantification of each analyte (concentration in nmol/L) was performed using a maximum current from amperograms and standard calibration curves. A reproducibility of measurements with nanosensors is relatively high (between 5-12%). […] The sensors were slowly raised 4±1 μm from the surface of a single endothelial cell. The HUVEC preparation is stable over the course of these experiments with the cells remaining viable in culture for >24 hours. Under non-stimulating conditions, basal levels of NO release are very low (<30 nM). […]

[4] = test system: human umbilical vein endothelial cells; experiment: CaI-stimulated peroxynitrite (ONOO−) release in HUVECs from MA and NHW donors after 24 h pre-treatment (nanosensor array); assay type: cell-based; conditions: for reduction of ONOO− levels: nebivolol pretreatment
Description: as §1

[5] = test system: eNOS; experiment: eNOS levels by Western blot analysis in endothelium; assay type: cell-based, human; conditions: MA endothelium, nebivolol treatment
Description: as §1

[6] = test system: aortic endothelial cells; experiment: STZ-induced diabetes: CaI-induced endothelial-dependent NO release from aortic endothelial cells after nebivolol treatment of animals; assay type: in vivo; conditions: nebivolol treatment prior to sacrifice at 13 weeks, p=0.1273
Description: FIG. 6 depicts the effects of STZ-induced diabetes on the ratio of CaI-induced NO/ONOO release from aortic endothelial cells in the absence and presence of nebivolol treatment prior to sacrifice of animals at 13 weeks. Values are reported as mean±SD. *p<0.0001 versus control and ^†p<0.001 versus STZ treatment (Student t-test). FIG. 7 depicts the effects of STZ-induced diabetes on CaI-induced endothelial-dependent NO release from aortic endothelial cells in the absence and presence of nebivolol treatment prior to sacrifice of animals at 13 weeks. Values are reported as mean±SD. *p<0.0001 versus control and ^†p<0.001 versus STZ treatment (Student t-test).

## OC(CNCC(O)C1CCc2cc(F)ccc2O1)C1CCc2cc(F)ccc2O1 (racemic) [nebivolol, α, α′-[iminobismethylene]bis[6-fluoro-3,4-dihydro-2H-1-benzopyran-2-methanol]]
[1]
  amount of NO released: 284 ± 24 nM
[2]; MA cells
  enhancement of NO release: 57%
[2]; MA, following nebivolol treatment
  increase of ratio of NO to ONOO− (indicator of eNOS coupling): more than 5 fold
[2]; NHW cells
  enhancement of NO release: 20%
[3]; HUVECs from Mexican American donors
  increase in NO release (NO bioavailability): 138 ± 2 nM
[3]; HUVECs from white donors
  increase in NO release (NO bioavailability): 68 ± 3 nM
[3]; nebivolol at 1.0 μM, 24 h pretreatment
  increase in NO bioavailability, Mexican American samples relative to white donors: two-fold greater
[4]; MA endothelium, from 746±12 nM without treatment
  ONOO− level after treatment: 195 ± 10 nM
[4]; MA endothelium
  reduction of ONOO− levels: 75%
[4]; NHW endothelium, from 416±7 nM without treatment
  ONOO− level after treatment: 191 ± 13 nM
[4]; NHW endothelium
  reduction of ONOO− levels: 50%
[5]
  increase of eNOS levels: two-fold
[6]
  CaI-induced endothelial-dependent NO release versus non-diabetic control animals: not a statistically significant difference as compared to non-diabetic control animals

## CC(C)NCC(O)COc1ccc(CC(N)=O)cc1 (stereo not drawn) [atenolol]
[2]; MA and NHW HUVECs
  effects on NO release, ONOO− levels, NO/ONOO− ratio and eNOS levels: not observed
[3]; either racial group, identical conditions (24 h pre-incubation at 1.0 or 5.0 μM, FIGS. 4 and 5)
  stimulation of NO release: failed to stimulate any significant amount of NO release; also recorded: did not have any effect

## O[C@H](CNC[C@@H](O)[C@H]1CCc2cc(F)ccc2O1)[C@@H]1CCc2cc(F)ccc2O1 [d-nebivolol]
[1]; WKY arterial vessels
  ability to stimulate NO release (order of activity): weakest stimulant of NO release
[1]
  amount of NO released: 180 ± 21 nM

## O[C@@H](CNC[C@H](O)[C@H]1CCc2cc(F)ccc2O1)[C@@H]1CCc2cc(F)ccc2O1 [l-nebivolol]
[1]
  amount of NO released: 340 ± 30 nM

— US20090030071A1, “Treatment of Cardiovascular Disease in Mexican Americans Using Nebivolol” (priority 2007, published 2009)
